Experimental data: patent publication US20090162848A1, “Noxin, a novel stress-induced gene involved in cell cycle and apoptosis” (COLD SPRING HARBOR LABORATORY, priority 2007, published 2009)

What was measured:
Type in all cases: cell-based, mouse
[1] = tested on: noxin mRNA in NIH3T3 cells; assay: Q-PCR of noxin mRNA in NIH3T3 cells exposed to stress stimuli; details: for induction of noxin mRNA: NIH3T3 cells exposed for 16 hours, Q-PCR
Method: The cDNA was diluted, mixed with 2×SYBR Green PCR Master Mix (Applied Biosystems) and 0.3 μM forward and reverse primers, and amplified using the ABI PRISM 7700 Sequence Detection System (Applied Biosystems). Primers (Sigma Genosys) for noxin and β-actin were designed using Primer Express software (Applied Biosystems) assuming the Tm value of 58-60° C. and the amplicon size of 70-150 bp:
The PCR conditions for the thermal cycler were as follows: denaturation (1 cycle at 95° C. for 10 min), amplification (40 cycles at 95° C. for 15 sec and 60° C. for 1 min). During the amplification, the fluorescence of each sample in the plate was detected in real time and an amplification curve was drawn by Sequence Detection System Software (Applied Biosystems) to get the threshold cycle Cτ, the cycle number at which the curve starts to rise over the background noise. The data from noxin amplifications were normalized using the Cτ value from the β-actin set for each sample and the relative difference in the amount of noxin RNA in untreated and in stress-exposed cells was calculated.
Noxin is induced not only by NO but also by other known stress stimuli. NIH3T3 cells were exposed for 16 hours to γ-irradiation (γ-IR), UV-irradiation (UV-IR), the chemotherapeutic agent adriamycin (ADR), hydrogen peroxide (H2O2), and a mixture of cytokines (TNF-α, IFN-γ, and IL-1β) which is known to be a potent inducer of reactive oxygen and nitrogen species.

[2] = tested on: noxin protein in NIH3T3 cells; assay: Western blot of endogenous noxin protein after stress stimuli; details: anti-noxin Western blot
Method: (§1) Western blot analysis. Cells or tissues were homogenized in the lysis buffer (10 mM Tris-HCl pH 7.5, 1 mM EDTA, 400 mM NaCl, 0.5% NP40, 5 mM NaF, 0.5 mM sodium orthovanadate, 10% glycerol, 1 mM dithiothreitol, 1 mM PMSF, 1 μg/ml aprotinin, 1 μg/ml leupeptin and 1 μg/ml pepstatin) for 20 min on ice. Following centrifugation, the soluble fraction was collected and protein concentration was determined using the BCA assay kit (Pierce). 50 μg of total protein was separated on an 8% SDS-PAGE gel and transferred to Immobilon-P membrane (Millipore Corporation) by semi-dry blotting. The membranes were incubated with anti-noxin antibody (see above) (1:1,000) followed by anti-mouse IgG or anti-rabbit IgG antibody conjugated to horseradish peroxidase (HRP) (1:10,000, Amersham). The HRP signal was detected using a chemi-luminescence detection kit (SuperSignal Femto Dura Extended Duration Substrate, Pierce) and Hyperfilm X-ray film (Amersham Biosciences).
Furthermore, in the SNAP-, cytokines-, γ-irradiation, and adriamycin-treated cells an additional band of 129 kD was evident.

[3] = tested on: noxin protein in NIH3T3 cells; assay: Western blot of noxin protein by cell cycle phase and cell cycle inhibitors
Method: as §1, with “The membranes were incubated with anti-noxin antibody (see above) (1:1,000) followed by anti-mouse IgG or anti-rabbit IgG antibody conjugated to horseradish peroxidase (HRP) (1:10,000, Amersham).” left out
The relationship between cell cycle and noxin expression was examined by determining the noxin mRNA levels in cells in various phases of the cell cycle using the methodology as follows: NIH3T3 cells, synchronized by serum starvation (DMEM with 0.5% serum for 24 h) were released from arrest by the addition of 10% serum (corresponds to the 0 h time point). […] Noxin mRNA expression was analyzed using Q-PCR 0, 4, 14, or 20 h after the addition of serum. The cell cycle phase of the cells was determined by flow cytometry in the following manner: […]

NIH3T3 cells [4] = assay: DNA content (PI flow cytometry) of shRNA-transfected, nocodazole-treated NIH3T3 cells; details: for fraction of cells in the sub-G1 population: nocodazole for 20 h
Method: For this experiment, NIH3T3 cells were transfected with 1 μg (HPC) or 2 μg (2×HPC) of the HPC shRNA construct, treated with nocodazole for 20 h, collected, stained with PI, and analyzed for DNA content using flow cytometry. The downregulation of noxin using this shRNA construct decreased the fraction of cells in G2/M and increased the fraction of cells in the sub-G1 population: 5.7±0.4% in control cells vs. 7.8±1.3% in cells transfected with 1 μg of HPC, and 8.0±1.7% in cells transfected with 2 μg of HPC (FIG. 20B).

noxin = assay: Suppression of FLAG-noxin protein by shRNA constructs (co-transfection, Western blot); details: NIH3T3 cells co-transfected with shRNA, FLAG-noxin and luciferase
Description: The role of noxin in normal cells was probed by down regulating its expression using the RNAi approach. Plasmids expressing six different noxin shRNA (FIG. 22, depicted as HPA-HPF) under control of the human U6 promoter were generated as described (Paddison et al., Proc Natl Acad Sci U.S.A. 99:1443-8 (2002)). The 6 hairpin structures correspond to the following noxin nucleotide positions: The target U6 promoter cassette DNA was amplified using a 5′-primer corresponding to the SP6 site at the 5′-end of the U6 promoter cassette and a long 3′ primer complementary to the 3′-end of the promoter and containing sequences for the noxin shRNA and a pol III termination site. The PCR fragments were subcloned into pENTR-TOPO-D vector (Invitrogen) and then transferred into pMSCV-puro vector by a clonase (Invitrogen) reaction. These six, short hairpin RNA (shRNA) constructs were generated and corresponded to different regions of noxin mRNA and their binding efficiency was compared by co-expressing them with recombinant noxin cDNA (FIG. 20A). To select shRNA constructs, six different shRNA constructs (HPA to HPF) were produced and examined for their ability to suppress the expression of noxin protein. […] After normalization, protein samples were analyzed for the expression of FLAG-noxin protein by Western blot.

NIH3T3 cells [5] = assay: Nuclear morphology (Hoechst) of shRNA/YFP-actin co-transfected cells; details: co-transfected with YFP-actin, Hoechst stain
Description: Panels 21A-D are images of cells that were co-transfected with the HPC or HPF shRNA constructs together with YFP-actin construct and stained with Hoechst. shRNA-transfected cells were identified by the YFP expression. […] The nuclei of cells transfected with HPF and YFP-actin or with YFP-actin alone and the nuclei of non-transfected cells had normal shape (light blue arrowheads). Scale bar: 10 μm.

NIH3T3 cells [6] = assay: BrdU incorporation (DNA synthesis) in transfected versus untransfected NIH3T3 cells; details: BrdU labeling for 24 h
Method: In addition, constructs coding for cyan fluorescent protein with a nuclear localization signal (CFP-nuc), yellow fluorescent protein fused to actin (YFP-actin), or vector construct alone were used as controls. Cells were then labeled with BrdU for 24 h and analyzed cells in situ by immunocytochemistry for BrdU and noxin (or other listed proteins) (FIG. 11A-C). In the figures, signals from anti-FLAG antibodies are seen in red; anti-BrdU antibodies are green; Hoechst 33342 (blue) was used for nuclear counter-staining. […] Recombinant protein was detected on a Western blot using the anti-FLAG antibody.

**Q.** How did the “induction of noxin mRNA” value [1] turn out when `OO` [H2O2, hydrogen peroxide] was run?
**A.** Its value is “strong induction”.

**Q.** What about the “noxin mRNA level versus unstimulated cells” value ([1]; NIH3T3 cells, stress exposure) of the same molecule?
**A.** The value was 13 fold.

**Q.** And the “levels of the 125 kD noxin polypeptide” value [2]?
**A.** Its value is “specifically increased”.

**Q.** Which “Noxin levels in response to cell cycle inhibitors” value [3] does the source give for `COC(=O)Nc1nc2ccc(C(=O)c3cccs3)cc2[nH]1` [nocodazole] here?
**A.** The value was “induced”.

**Q.** What about the “cell cycle effect of nocodazole treatment” value (NIH3T3 cells [4]; NIH3T3 cells, 20 h) of the same molecule?
**A.** The value was “accumulation of cells in the G2/M phase”.

**Q.** Which “inhibition of noxin (FLAG-noxin) expression” value (noxin) does the source give for “HPF: noxin shRNA construct, nt 509-537 (SEQ ID NO: 19) (DNA AAACCCTGGACAGTGGTAGAACTCAGAGC)” here?
**A.** Its value is “no effect”.

**Q.** What about the “nuclear / chromatin morphology of transfected cells” value (NIH3T3 cells [5]) of the same molecule?
**A.** The value was “normal shape”.

**Q.** Which “fraction of BrdU-positive cells in transfected cells, % of the value for the untransfected cells” value (NIH3T3 cells [6]) does the source give for “p21/WAF: cdk inhibitor p21/WAF expressed from transfected plasmid” here?
**A.** The value was 39%.

**Q.** How did the “inhibition of noxin (FLAG-noxin) expression” value (noxin) turn out when “HPC: noxin shRNA construct, nt 1163-1191 (SEQ ID NO: 16) (DNA GTTGTCATGAAAGTAGATTGTCTGACTCT)” was run?
**A.** Its value is “strongest inhibition”.

**Q.** What about the “fraction of cells in G2/M phase” value (NIH3T3 cells [4]; nocodazole-treated NIH3T3 cells) of the same molecule?
**A.** The value was “decreased”.

**Q.** And the “fraction of cells in the sub-G1 population” value (NIH3T3 cells [4]; transfected with 1 μg construct)?
**A.** Its value is 7.8±1.3%.

**Q.** What about the “fraction of cells in the sub-G1 population” value (NIH3T3 cells [4]; transfected with 2 μg construct) of the same molecule?
**A.** The value was 8.0±1.7%.

**Q.** What about the “nuclear / chromatin morphology of transfected cells” value (NIH3T3 cells [5]) of the same molecule?
**A.** The value was “condensed chromatin structures”.

**Q.** For `COc1cccc2c1C(=O)c1c(O)c3c(c(O)c1C2=O)C[C@@](O)(C(=O)CO)C[C@@H]3O[C@H]1C[C@H](N)[C@H](O)[C@H](C)O1` [adriamycin], which “induction of noxin mRNA” value [1] is on record?
**A.** The value was “strong induction”.

**Q.** And the “additional noxin band of 129 kD” value [2]?
**A.** Its value is “evident”.

**Q.** And the “levels of the 125 kD noxin polypeptide” value [2]?
**A.** The value was “specifically increased”.

**Q.** With `C[C@@]1(CO)[C@H](O)CC[C@@]2(C)[C@H]1CC[C@H]1C[C@@H]3C[C@@]12CC[C@]3(O)CO` [aphidicolin] as the molecule, how does the “Noxin levels in response to cell cycle inhibitors” value [3] read?
**A.** Its value is “induced”.
